Reference: patent US20230240297A1, “SELECTIVE HERBICIDES BASED ON SUBSTITUTED ISOXAZOLIN CARBOXAMIDES AND CYPROSULFAMIDE” (Bayer Aktiengesellschaft, priority 2020, published 2023)

How the values were obtained:
ZEAMA Sileno [1] = assay: Tank-mix; post-emergence, crop damage with and without safener; type: in vivo, maize; conditions: for HER effect + SAF / HER effect: Final assessment; for HER effect: no safener
Protocol: Seeds of crops (spring wheat, TRZAS; spring barley, HORVS; maize, ZEAMA) were placed in sandy loam soil in peat pots, covered with soil and cultivated in a greenhouse under good growth conditions. Two to three weeks after sowing, the test plants were treated at the 1 to 3-leaf stage. The herbicide/safener active compound combinations according to the invention, formulated as wettable powders or emulsion concentrates, and, in parallel tests, the correspondingly formulated individual active compounds were sprayed onto the green parts of the plants in various dosages using an amount of water of 300 1/ha (converted).
The pots were returned under good growing conditions in a glasshouse and a visual assessment of herbicidal effects was made at intervals from 1 to 3 weeks after herbicide application (DAT = days after treatment). Assessment was on a percentage basis in comparison with untreated control plants (0% = no injury, 100% = complete kill).

ZEAMA Sileno [2] = assay: Seed treatment with safener; post-emergence herbicide application; type: in vivo, maize; design: Reduction [Difference]: scale not given here; conditions: Final assessment; for Reduction [%] / Reduction [Difference]: Cyprosulfamide 0.5 g a.i./kg seed; for Reduction [Difference]: damage without safener - damage with safener; for HER effect + SAF (crop damage with safener): Cyprosulfamide seed treatment 0.5 g a.i./kg seed; for HER effect (crop damage, herbicide without safener): no safener
Protocol: For the safener seed treatment, sufficient seeds of the respective crops (spring wheat, TRZAS; spring barley, HORVS; maize, ZEAMA) were weighed into screw top glass bottles approximately twice the volume of the seeds.
The specified safeners, formulated as wettable powder (WP) were weighed out so that the specified rates (g a.i./kg seed) would be obtained, dissolved in water (1 ml water per 10 g of seeds), and added to the seeds to produce a slurry.
The bottles were capped and then placed in an overhead shaker (set at medium speed for ca. 60 minutes) so that the seeds were evenly coated with the slurry. The bottles were uncapped and the seeds were either placed on paper and dried for an interval of 3-4 hours prior to sowing, or directly sown. Seeds were placed in sandy loam soil in pots of a diameter of 7-8 cm, covered with soil, and cultivated in a greenhouse under good growth conditions.
Post-emergence application of the specified herbicides was done when the plants had reached growth stage BBCH11-13, on two sets of plants:
a) seed treatment with safener, as described above b) no safener treatment
The herbicides were formulated as WP and sprayed onto the green parts of the plants as an aqueous suspension at an equivalent water application rate of 300 1/ha, with addition of wetting agent and adjuvants (e.g. Mero, 1.5 1/ha; ammonium sulphate, 2 kg/ha)
After application, the test plants were kept in the greenhouse under good growth conditions.
Values in the table below are mean values of at least 2 replicates.

[3] = HER 8 g a.i./ha, cyprosulfamide 50 g a.i./ha
[4] = HER 32 g a.i./ha, cyprosulfamide 100 g a.i./ha
[5] = HER dose 8 g a.i./ha + cyprosulfamide 50 g a.i./ha tank-mix
[6] = HER dose 32 g a.i./ha + cyprosulfamide 100 g a.i./ha tank-mix

| SMILES | Reduction [%] (ZEAMA Sileno [1]; [3]) | Reduction [Difference] (ZEAMA Sileno [1]; [3]) | Reduction [%] (ZEAMA Sileno [1]; [4]) | Reduction [Difference] (ZEAMA Sileno [1]; [4]) | HER effect + SAF (ZEAMA Sileno [1]; [5]) [%] | HER effect (ZEAMA Sileno [1]; HER dose 8 g a.i./ha) [%] | HER effect + SAF (ZEAMA Sileno [1]; [6]) [%] | HER effect (ZEAMA Sileno [1]; HER dose 32 g a.i./ha) [%] | Reduction [%] (ZEAMA Sileno [2]; HER dose 8 g a.i./ha) | Reduction [Difference] (ZEAMA Sileno [2]; HER dose 8 g a.i./ha) | HER effect + SAF (crop damage with safener) (ZEAMA Sileno [2]; HER dose 8 g a.i./ha) [%] | HER effect (crop damage, herbicide without safener) (ZEAMA Sileno [2]; HER dose 8 g a.i./ha) [%] | Reduction [%] (ZEAMA Sileno [2]; HER dose 32 g a.i./ha) | Reduction [Difference] (ZEAMA Sileno [2]; HER dose 32 g a.i./ha) | HER effect + SAF (crop damage with safener) (ZEAMA Sileno [2]; HER dose 32 g a.i./ha) [%] | HER effect (crop damage, herbicide without safener) (ZEAMA Sileno [2]; HER dose 32 g a.i./ha) [%] |
| --- | --- | --- | --- | --- | --- | --- | --- | --- | --- | --- | --- | --- | --- | --- | --- | --- |
| C=CCOC(=O)C1CC(NC(=O)C2(C=C)CC(c3cc(F)cc(F)c3)=NO2)CO1 (mixture of isomers) [Example 1.83] | 73 | 45 | 73 | 62 | 17 | 62 | 23 | 85 | 100 | 62 | 0 | 62 | 96 | 82 | 3 | 85 |
| COC(=O)C1(C)CC(NC(=O)C2(C(C)(F)F)CC(c3cc(F)cc(F)c3)=NO2)CO1 (mixture of isomers) [Example 1.94] | 89 | 81 | 76 | 71 | 10 | 91 | 23 | 94 | 100 | 91 | 0 | 91 | 93 | 87 | 7 | 94 |
| CCOC(=O)C1=CCC(NC(=O)C2(C)CC(c3cccc(F)c3)=NO2)C1 (mixture of isomers) [Example 1.59] | 100 | 20 | 90 | 60 | 0 | 20 | 7 | 67 | 100 | 20 | 0 | 20 | 85 | 57 | 10 | 67 |
| CCOC(=O)C1C=CC(NC(=O)C2(C(F)(F)F)CC(c3ccccc3)=NO2)C1 (centres unmarked) [Example 1.9] | 87 | 68 | 59 | 50 | 10 | 78 | 35 | 85 | 100 | 78 | 0 | 78 | 100 | 85 | 0 | 85 |
| COC(=O)C1C=CC(NC(=O)C2(C(F)(F)F)CC(c3cccc(F)c3)=NO2)C1 (centres unmarked) [Example 1.18] | 66 | 62 | 72 | 70 | 32 | 94 | 27 | 97 | 89 | 84 | 10 | 94 | 79 | 77 | 20 | 97 |
